Laboratory results taken from ChEMBL document CHEMBL4261555, “Identification of a potent kinase inhibitor targeting EML4-ALK fusion protein in non-small cell lung cancer” (Medchemcomm, 2017).
Active and inactive are the calls of the source. The rule behind the calls is not given here.

Key:
[1] = biological target: T1, ALK tyrosine kinase receptor (Homo sapiens, UniProt Q9UM73); experiment: Inhibition of EML4-fused ALK autophosphorylation at Tyr1282/1283 in human NCI-H2228 cells at 2.5 to 10 uM after 48 hrs by Western blot method; type: cell-based
Target sequence in this assay (Q9UM73 19-1620 limits assumed): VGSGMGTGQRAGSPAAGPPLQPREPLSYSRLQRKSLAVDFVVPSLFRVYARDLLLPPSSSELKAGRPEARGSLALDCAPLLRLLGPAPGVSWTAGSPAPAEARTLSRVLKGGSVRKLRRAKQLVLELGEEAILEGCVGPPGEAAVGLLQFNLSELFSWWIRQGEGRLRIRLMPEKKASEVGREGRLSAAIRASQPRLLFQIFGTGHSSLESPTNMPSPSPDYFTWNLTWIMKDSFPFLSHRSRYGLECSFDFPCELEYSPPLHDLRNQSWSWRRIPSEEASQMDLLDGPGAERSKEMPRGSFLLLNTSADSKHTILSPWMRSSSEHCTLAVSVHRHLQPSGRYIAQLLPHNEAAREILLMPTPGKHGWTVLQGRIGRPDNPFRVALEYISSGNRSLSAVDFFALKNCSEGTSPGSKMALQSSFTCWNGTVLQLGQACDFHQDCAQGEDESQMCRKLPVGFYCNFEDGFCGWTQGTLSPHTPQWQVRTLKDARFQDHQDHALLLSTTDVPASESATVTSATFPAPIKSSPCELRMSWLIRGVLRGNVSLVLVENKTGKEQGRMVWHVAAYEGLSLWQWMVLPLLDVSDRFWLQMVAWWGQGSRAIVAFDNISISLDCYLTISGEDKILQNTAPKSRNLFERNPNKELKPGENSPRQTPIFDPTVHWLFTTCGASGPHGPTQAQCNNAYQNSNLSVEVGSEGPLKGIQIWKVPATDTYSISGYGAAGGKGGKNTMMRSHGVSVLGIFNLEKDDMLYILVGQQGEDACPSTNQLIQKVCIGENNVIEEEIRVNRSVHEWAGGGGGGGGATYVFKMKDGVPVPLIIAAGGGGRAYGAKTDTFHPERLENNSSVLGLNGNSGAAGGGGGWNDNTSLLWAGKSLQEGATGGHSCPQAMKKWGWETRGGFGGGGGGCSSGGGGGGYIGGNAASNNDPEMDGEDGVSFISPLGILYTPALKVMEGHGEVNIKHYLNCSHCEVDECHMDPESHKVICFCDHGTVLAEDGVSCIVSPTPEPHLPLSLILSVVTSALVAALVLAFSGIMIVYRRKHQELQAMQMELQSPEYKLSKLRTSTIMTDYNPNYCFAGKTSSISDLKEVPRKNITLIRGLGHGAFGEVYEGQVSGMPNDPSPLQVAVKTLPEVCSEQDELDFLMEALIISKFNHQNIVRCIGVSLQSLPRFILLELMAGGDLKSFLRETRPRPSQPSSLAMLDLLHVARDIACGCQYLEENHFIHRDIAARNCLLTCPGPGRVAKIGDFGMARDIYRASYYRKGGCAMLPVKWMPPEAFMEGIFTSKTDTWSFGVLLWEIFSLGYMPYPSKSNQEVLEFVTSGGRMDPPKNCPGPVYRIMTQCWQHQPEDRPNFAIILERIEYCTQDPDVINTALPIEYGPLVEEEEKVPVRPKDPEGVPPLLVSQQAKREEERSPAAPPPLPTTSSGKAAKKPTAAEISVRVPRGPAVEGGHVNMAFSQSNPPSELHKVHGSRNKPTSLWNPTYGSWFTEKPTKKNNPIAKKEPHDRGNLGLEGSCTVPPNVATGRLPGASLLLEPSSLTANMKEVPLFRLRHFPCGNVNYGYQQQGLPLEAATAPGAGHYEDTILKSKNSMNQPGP

[2] = biological target: T1, ALK tyrosine kinase receptor
Target sequence in this assay (Q9UM73 whole entry, the tested form may be a part): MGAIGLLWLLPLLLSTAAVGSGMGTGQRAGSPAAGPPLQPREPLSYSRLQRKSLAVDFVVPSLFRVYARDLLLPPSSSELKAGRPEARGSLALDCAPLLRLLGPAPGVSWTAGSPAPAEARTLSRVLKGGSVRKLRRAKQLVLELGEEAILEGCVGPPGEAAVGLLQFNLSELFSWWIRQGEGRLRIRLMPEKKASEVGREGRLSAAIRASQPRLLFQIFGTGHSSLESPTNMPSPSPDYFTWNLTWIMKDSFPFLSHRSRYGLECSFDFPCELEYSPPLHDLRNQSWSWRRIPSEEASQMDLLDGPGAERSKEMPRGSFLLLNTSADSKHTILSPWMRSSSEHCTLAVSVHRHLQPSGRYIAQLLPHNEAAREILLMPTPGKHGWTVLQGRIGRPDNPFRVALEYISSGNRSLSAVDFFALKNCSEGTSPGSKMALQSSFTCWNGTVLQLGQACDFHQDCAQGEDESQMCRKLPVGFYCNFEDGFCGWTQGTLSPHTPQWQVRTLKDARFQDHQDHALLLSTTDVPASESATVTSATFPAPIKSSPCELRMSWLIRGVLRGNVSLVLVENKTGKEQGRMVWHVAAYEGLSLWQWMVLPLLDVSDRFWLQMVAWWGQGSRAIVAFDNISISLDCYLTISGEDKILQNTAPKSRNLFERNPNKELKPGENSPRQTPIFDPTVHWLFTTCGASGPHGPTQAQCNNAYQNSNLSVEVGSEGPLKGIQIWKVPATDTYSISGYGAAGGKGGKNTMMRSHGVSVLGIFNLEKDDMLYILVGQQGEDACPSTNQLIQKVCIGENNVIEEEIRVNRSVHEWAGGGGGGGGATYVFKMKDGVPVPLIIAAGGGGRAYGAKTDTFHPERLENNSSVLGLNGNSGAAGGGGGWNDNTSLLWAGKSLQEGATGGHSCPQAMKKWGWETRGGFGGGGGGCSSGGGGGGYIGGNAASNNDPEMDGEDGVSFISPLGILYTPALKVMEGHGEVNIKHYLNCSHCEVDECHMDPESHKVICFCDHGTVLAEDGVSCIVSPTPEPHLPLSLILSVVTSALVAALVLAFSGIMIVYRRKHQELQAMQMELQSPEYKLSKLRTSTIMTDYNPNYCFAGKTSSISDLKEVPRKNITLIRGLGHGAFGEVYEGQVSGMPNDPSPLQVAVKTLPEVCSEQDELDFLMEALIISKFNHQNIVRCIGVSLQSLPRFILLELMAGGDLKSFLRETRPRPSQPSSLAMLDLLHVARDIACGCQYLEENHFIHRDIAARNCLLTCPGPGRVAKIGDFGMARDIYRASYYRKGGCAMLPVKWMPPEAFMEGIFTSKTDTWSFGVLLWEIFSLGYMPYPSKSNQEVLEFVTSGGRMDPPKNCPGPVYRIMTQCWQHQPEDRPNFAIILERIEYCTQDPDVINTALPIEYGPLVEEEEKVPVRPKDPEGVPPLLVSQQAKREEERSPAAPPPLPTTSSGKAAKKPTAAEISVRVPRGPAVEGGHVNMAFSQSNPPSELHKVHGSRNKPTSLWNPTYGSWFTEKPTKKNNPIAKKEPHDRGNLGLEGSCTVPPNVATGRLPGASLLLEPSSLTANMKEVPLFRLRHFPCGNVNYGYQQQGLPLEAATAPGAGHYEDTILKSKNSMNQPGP
Description: Inhibition of recombinant ALK (unknown origin) after 1 hr by fluorescence assay

[3] = biological target: T1, ALK tyrosine kinase receptor; experiment: Inhibition of EML4-fused ALK in human NCI-H2228 cells assessed as suppression of STAT3 phosphorylation after 48 hrs by Western blot method; type: cell-based
Target sequence in this assay (Q9UM73 19-1620 limits assumed): as the sequence (Q9UM73 19-1620 limits assumed) above

NCI-H2228 [4] = conditions: Homo sapiens
Description: (§1) Cytotoxicity against human NCI-H2228 cells harboring EML4-ALK fusion protein assessed as decrease in cell viability after 72 hrs by MTT assay

NCI-H2228 [5] = experiment: cells; conditions: Homo sapiens, NCI-H2228, 72 h
Description: as §1

[6] = biological target: T1, ALK tyrosine kinase receptor; experiment: Inhibition of EML4-fused ALK in human NCI-H2228 cells assessed as suppression of ERK1/2 phosphorylation after 48 hrs by Western blot method; type: cell-based
Target sequence in this assay (Q9UM73 19-1620 limits assumed): as above

NCI-H2228 [7] = experiment: Anticlonogenic activity against human NCI-H2228 cells treated every 3 days for 10 days by crystal violet staining based assay; type: functional, cell-based
NCI-H2228 [8] = experiment: Induction of apoptosis in human NCI-H2228 cells at 5 uM after 48 hrs by annexin V-FITC/propidium iodide staining-based flow cytometric method (reference value: 4.5%); type: functional
NCI-H2228 [9] = experiment: Induction of apoptosis in human NCI-H2228 cells at 10 uM after 48 hrs by annexin V-FITC/propidium iodide staining-based flow cytometric method (reference value: 4.5%); type: functional
[10] = biological target: T1, ALK tyrosine kinase receptor; experiment: Inhibition of EML4-fused ALK in human NCI-H2228 cells assessed as suppression of AKT phosphorylation after 48 hrs by Western blot method; type: cell-based
Target sequence in this assay (Q9UM73 19-1620 limits assumed): as above

NCI-H2228 [11] = experiment: Induction of apoptosis in human NCI-H2228 cells after 48 hrs by annexin V-FITC/propidium iodide staining-based flow cytometric method; type: functional, cell-based

inhibition [1]: Active
EC50 [2]: 19.6 µM
inhibition [3]: Dose-dependent effect
IC50 (NCI-H2228 [5]): 4.11 µM
inhibition [6]: Dose-dependent effect
inhibition [10]: Dose-dependent effect
Compound: CC1=C(C)C2C(=O)N3N=C(NCCCN(C)C)c4ccccc4C3=NC2S1 (stereo unspecified)
Activity (NCI-H2228 [4]): Dose-dependent effect
Activity (NCI-H2228 [7]): Active
Activity (NCI-H2228 [8]): 23.5%
Activity (NCI-H2228 [9]): 37.5%
Activity (NCI-H2228 [11]): Dose-dependent effect
